From patent publication US8946203B2, “Benzodioxane inhibitors of leukotriene production” (Boehringer Ingelheim International GmbH, priority 2012, dated 2015)

molecular target: T1, human LTA4 hydrolase (Homo sapiens, UniProt P09960); assay: LTA4H Enzyme assay (cleavage of Arg-AMC, fluorescence); format: biochemical; conditions: LTA4H Enzyme 1 nM, Arg-AMC substrate 50 μM, room temperature 1 h, fluorescence; read-out: IC50 values of LTA4H Enzyme assay
T1 sequence (P09960 1-611): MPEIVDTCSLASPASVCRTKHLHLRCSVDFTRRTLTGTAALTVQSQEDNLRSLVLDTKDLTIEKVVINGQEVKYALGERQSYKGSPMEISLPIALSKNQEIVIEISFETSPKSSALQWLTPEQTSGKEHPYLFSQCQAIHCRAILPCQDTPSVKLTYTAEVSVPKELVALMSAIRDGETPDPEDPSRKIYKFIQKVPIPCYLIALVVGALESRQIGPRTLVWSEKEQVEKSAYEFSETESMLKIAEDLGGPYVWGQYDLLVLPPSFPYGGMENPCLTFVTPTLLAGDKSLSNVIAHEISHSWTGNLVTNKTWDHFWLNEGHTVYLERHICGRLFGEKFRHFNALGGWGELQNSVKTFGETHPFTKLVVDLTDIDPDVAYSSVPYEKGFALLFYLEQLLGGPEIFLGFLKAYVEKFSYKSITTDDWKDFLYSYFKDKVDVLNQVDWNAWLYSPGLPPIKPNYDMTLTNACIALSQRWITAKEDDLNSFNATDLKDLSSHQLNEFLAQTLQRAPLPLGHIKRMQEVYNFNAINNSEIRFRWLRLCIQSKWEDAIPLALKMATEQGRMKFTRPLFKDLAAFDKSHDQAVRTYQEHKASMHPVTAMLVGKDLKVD
Method: The compounds of the invention are assessed for the ability to interact with human LTA4 hydrolase in an enzymatic assay that measures the ability of the enzyme to cleave the peptide bond of arginyl-aminomethylcoumarin (Arg-AMC). LTA4H Enzyme (1 nM final), Arg-AMC substrate (50 μM final), and compound are combined in a reaction buffer (50 mM Tris-HCl (pH 7.5), 100 mM KCl, 0.5% bovine serum albumin) at room temperature for 1 h. The formation of product is assessed by measuring the fluorescence of aminomethylcoumarin product (excitation wavelength 380 nm/emission wavelength 460 nm).

SMILES	IC50 [nM]
CC1(C)CCN(Cc2ccc(C3COc4ccccc4O3)cc2)CC1 (racemic) [Example 3, 1-[4-(2,3-dihydro-1,4-benzodioxin-2-yl)benzyl]-4,4-dimethylpiperidine]	2.57
O=C1NCCC12CCN(Cc1ccc(C3COc4ccccc4O3)cc1)CC2 (racemic) [Example 4, 8-[4-(2,3-dihydro-1,4-benzodioxin-2-yl)benzyl]-2,8-diazaspiro[4.5]decan-1-one]	0.74
O=S1(=O)CCN(Cc2ccc(C3COc4ccccc4O3)cc2)CC1 (racemic) [Example 7, 4-[4-(2,3-dihydro-1,4-benzodioxin-2-yl)benzyl]thiomorpholine 1,1-dioxide]	2.79
O=C(CNCc1ccc(C2COc3ccccc3O2)cc1)N1CCCC1 (racemic) [Example 12, 2-{[4-(2,3-dihydro-1,4-benzodioxin-2-yl)benzyl]amino}-1-(pyrrolidin-1-yl)ethanone]	10.2
c1cnc2c(c1)OCC(c1ccc(CN3CCCC3)cc1)O2 (racemic) [Example 15, 3-[4-(pyrrolidin-1-ylmethyl)phenyl]-2,3-dihydro[1,4]dioxin[2,3-b]pyridine]	0.36
c1ccc2c(c1)OCC(c1ccc(CN3CCn4cnnc4C3)cc1)O2 (racemic) [Example 16, 7-[4-(2,3-dihydro-1,4-benzodioxin-2-yl)benzyl]-5,6,7,8-tetrahydro[1,2,4]triazolo[4,3-a]pyrazine]	2.32
O=S1(=O)CCN(Cc2ccc(C3COc4cccnc4O3)cc2)CC1 (racemic) [Example 17, 3-{4-[(1,1-dioxidothiomorpholin-4-yl)methyl]phenyl}-2,3-dihydro[1,4]dioxin[2,3-b]pyridine]	0.77
CC(C)(C)NCc1ccc(C2COc3ccccc3O2)cc1 (racemic) [Example 23, N-[4-(2,3-dihydro-1,4-benzodioxin-2-yl)benzyl]-2-methylpropan-2-amine]	5.2
CC[C@@H](C)NCc1ccc(C2COc3ccccc3O2)cc1 (mixture of isomers) [Example 24, (2R)-N-[4-(2,3-dihydro-1,4-benzodioxin-2-yl)benzyl]butan-2-amine]	5.9
OCC1CCN(Cc2ccc(C3COc4ccccc4O3)cc2)CC1 (racemic) [Example 27, {1-[4-(2,3-dihydro-1,4-benzodioxin-2-yl)benzyl]piperidin-4-yl}methanol]	1.2
CC(C)(O)C1CCN(Cc2ccc(C3COc4ccccc4O3)cc2)CC1 (racemic) [Example 28, 2-{1-[4-(2,3-dihydro-1,4-benzodioxin-2-yl)benzyl]piperidin-4-yl}propan-2-ol]	3.4
OCCCC1CCN(Cc2ccc(C3COc4ccccc4O3)cc2)CC1 (racemic) [Example 29, 3-{1-[4-(2,3-dihydro-1,4-benzodioxin-2-yl)benzyl]piperidin-4-yl}propan-1-ol]	2.04

More lines, now with the values ahead:

IC50 [nM]	SMILES
2.45	c1ccc2c(c1)OCC(c1ccc(CN3CCOCC3)cc1)O2 (racemic) [Example 2, 4-[4-(2,3-dihydro-1,4-benzodioxin-2-yl)benzyl]morpholine]
2.96	FC1CCN(Cc2ccc(C3COc4ccccc4O3)cc2)CC1 (racemic) [Example 5, 1-[4-(2,3-dihydro-1,4-benzodioxin-2-yl)benzyl]-4-fluoropiperidine]
2.95	CC(=O)N1CCN(Cc2ccc(C3COc4ccccc4O3)cc2)CC1 (racemic) [Example 11, 1-{4-[4-(2,3-dihydro-1,4-benzodioxin-2-yl)benzyl]piperazin-1-yl}ethanone]
1.77	CN1CCCN(Cc2ccc(C3COc4ccccc4O3)cc2)CC1 (racemic) [Example 30, 1-[4-(2,3-dihydro-1,4-benzodioxin-2-yl)benzyl]-4-methyl-1,4-diazepane]
1.54	CC(=O)N1CCCN(Cc2ccc(C3COc4ccccc4O3)cc2)CC1 (racemic) [Example 31, 1-{4-[4-(2,3-dihydro-1,4-benzodioxin-2-yl)benzyl]-1,4-diazepan-1-yl}ethanone]
1.8	c1ccc2c(c1)OCC(c1ccc(CN3CCCOCC3)cc1)O2 (racemic) [Example 32, 4-[4-(2,3-dihydro-1,4-benzodioxin-2-yl)benzyl]-1,4-oxazepan]
